Earlier results, collected in patent US8304000B2, “Process for preparing water extract of cinnamon” (Beijing Tang-An Nutrition & Healthcare Products Co. Ltd., priority 2010, dated 2012).

solubility in alcohol (alcohol): readily soluble
solubility in water (water): poorly soluble
SMILES: O=c1ccc2ccccc2o1 [Coumarin, 1-benzopyran-2-one]
